# According to PubChem BioAssay AID1919010 (Molecular Pharmacology Branch, DTP, NCI, 2023):
# System: Hs578T complex spheroid growth, percent test/control
# Experiment: Anticancer human tumor Hs578T cell line growth inhibition [AhR];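 also: luminescent viability signal as a proxy for spheroid growth; spheroids exposed to agents for one week after three days of growth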
# Conditions: for IC50: curve of first compound; for viability, T/C: stronger effect = lower value
# Procedure, shortened: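 Complex tumor spheroids co-cultured with HUVEC and human MSC stroma; AhR antagonists tested in combination with standard-of-care and investigational agents. Top concentration at or near clinical Cmax (else 10 microM), half-log dilutions; growth expressed as percent test/control.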
# [1] = second compound 0.1 µM, first compound 0.0316 µM
# [2] = second compound 0.1 µM, first compound 0.1 µM
# [3] = second compound 0.1 µM, first compound 0.316 µM
# [4] = second compound 0.1 µM, first compound 1 µM
# [5] = second compound 0.1 µM, first compound 3.16 µM
# [6] = second compound 0.1 µM, first compound 10 µM
# [7] = second compound 0.316 µM, first compound 0.0316 µM
# [8] = second compound 0.316 µM, first compound 0.1 µM
# [9] = second compound 0.316 µM, first compound 0.316 µM
# [10] = second compound 0.316 µM, first compound 1 µM
# [11] = second compound 0.316 µM, first compound 3.16 µM
# [12] = second compound 0.316 µM, first compound 10 µM
# [13] = second compound 1 µM, first compound 0.0316 µM
# [14] = second compound 1 µM, first compound 0.1 µM
# [15] = second compound 1 µM, first compound 0.316 µM
# [16] = second compound 1 µM, first compound 1 µM
# [17] = second compound 1 µM, first compound 3.16 µM
# [18] = second compound 1 µM, first compound 10 µM
# [19] = second compound 3.16 µM, first compound 0.0316 µM
# [20] = second compound 3.16 µM, first compound 0.1 µM
# [21] = second compound 3.16 µM, first compound 0.316 µM
# [22] = second compound 3.16 µM, first compound 1 µM
# [23] = second compound 3.16 µM, first compound 3.16 µM
# [24] = second compound 3.16 µM, first compound 10 µM
# [25] = second compound 10 µM, first compound 0.0316 µM
# [26] = second compound 10 µM, first compound 0.1 µM
# [27] = second compound 10 µM, first compound 0.316 µM
# [28] = second compound 10 µM, first compound 1 µM
# [29] = second compound 10 µM, first compound 3.16 µM
# [30] = second compound 10 µM, first compound 10 µM
compound,measurement,setting,value
CC1(C)CCC(CN2CCN(c3ccc(C(=O)NS(=O)(=O)c4ccc(NCC5CCOCC5)c([N+](=O)[O-])c4)c(Oc4cnc5[nH]ccc5c4)c3)CC2)=C(c2ccc(Cl)cc2)C1 + Cc1cncc(-c2nc(NCCc3c[nH]c4ccccc34)c3ncn(C(C)C)c3n2)c1,IC50,second compound 0.1 µM,> 10 µM
same,IC50,second compound 0.316 µM,> 10 µM
same,IC50,second compound 1 µM,> 10 µM
same,IC50,second compound 3.16 µM,> 10 µM
same,IC50,second compound 10 µM,< 0.0316 µM
same,"viability, T/C",[1],117%
same,"viability, T/C",[2],118%
same,"viability, T/C",[3],115%
same,"viability, T/C",[4],94.8%
same,"viability, T/C",[5],95.9%
same,"viability, T/C",[6],82.6%
same,"viability, T/C",[7],117%
same,"viability, T/C",[8],118%
same,"viability, T/C",[9],112%
same,"viability, T/C",[10],109%
same,"viability, T/C",[11],105%
same,"viability, T/C",[12],97.4%
same,"viability, T/C",[13],113%
same,"viability, T/C",[14],111%
same,"viability, T/C",[15],109%
same,"viability, T/C",[16],108%
same,"viability, T/C",[17],111%
same,"viability, T/C",[18],92.8%
same,"viability, T/C",[19],49.6%
same,"viability, T/C",[20],65.6%
same,"viability, T/C",[21],65.5%
same,"viability, T/C",[22],56.4%
same,"viability, T/C",[23],69.2%
same,"viability, T/C",[24],75.2%
same,"viability, T/C",[25],3.98%
same,"viability, T/C",[26],3.8%
same,"viability, T/C",[27],4.95%
same,"viability, T/C",[28],5.32%
same,"viability, T/C",[29],4.95%
same,"viability, T/C",[30],8.06%
CCN(c1cc(-c2ccc(CN3CCOCC3)cc2)cc(C(=O)NCc2c(C)cc(C)[nH]c2=O)c1C)C1CCOCC1 + Cc1cncc(-c2nc(NCCc3c[nH]c4ccccc34)c3ncn(C(C)C)c3n2)c1,IC50,second compound 0.1 µM,> 3 µM
same,IC50,second compound 0.316 µM,> 3 µM
same,IC50,second compound 1 µM,> 3 µM
same,IC50,second compound 3.16 µM,< 0.00949 µM
same,IC50,second compound 10 µM,< 0.00949 µM
same,"viability, T/C","second compound 0.1 µM, first compound 0.00949 µM",111%
same,"viability, T/C","second compound 0.1 µM, first compound 0.03 µM",95.9%
same,"viability, T/C","second compound 0.1 µM, first compound 0.0949 µM",101%
same,"viability, T/C","second compound 0.1 µM, first compound 0.3 µM",107%
same,"viability, T/C","second compound 0.1 µM, first compound 0.949 µM",94.4%
same,"viability, T/C","second compound 0.1 µM, first compound 3 µM",106%
same,"viability, T/C","second compound 0.316 µM, first compound 0.00949 µM",111%
same,"viability, T/C","second compound 0.316 µM, first compound 0.03 µM",99.9%
same,"viability, T/C","second compound 0.316 µM, first compound 0.0949 µM",106%
same,"viability, T/C","second compound 0.316 µM, first compound 0.3 µM",96.6%
same,"viability, T/C","second compound 0.316 µM, first compound 0.949 µM",99.5%
same,"viability, T/C","second compound 0.316 µM, first compound 3 µM",90.7%
same,"viability, T/C","second compound 1 µM, first compound 0.00949 µM",103%
same,"viability, T/C","second compound 1 µM, first compound 0.03 µM",102%
same,"viability, T/C","second compound 1 µM, first compound 0.0949 µM",101%
same,"viability, T/C","second compound 1 µM, first compound 0.3 µM",93.5%
same,"viability, T/C","second compound 1 µM, first compound 0.949 µM",105%
same,"viability, T/C","second compound 1 µM, first compound 3 µM",93.3%
same,"viability, T/C","second compound 3.16 µM, first compound 0.00949 µM",49.8%
same,"viability, T/C","second compound 3.16 µM, first compound 0.03 µM",46.4%
same,"viability, T/C","second compound 3.16 µM, first compound 0.0949 µM",51.5%
same,"viability, T/C","second compound 3.16 µM, first compound 0.3 µM",48%
same,"viability, T/C","second compound 3.16 µM, first compound 0.949 µM",46%
same,"viability, T/C","second compound 3.16 µM, first compound 3 µM",51.7%
same,"viability, T/C","second compound 10 µM, first compound 0.00949 µM",6.41%
same,"viability, T/C","second compound 10 µM, first compound 0.03 µM",5.56%
same,"viability, T/C","second compound 10 µM, first compound 0.0949 µM",7.45%
same,"viability, T/C","second compound 10 µM, first compound 0.3 µM",5.08%
same,"viability, T/C","second compound 10 µM, first compound 0.949 µM",5.95%
same,"viability, T/C","second compound 10 µM, first compound 3 µM",3.67%
Cn1ncnc1C1c2n[nH]c(=O)c3cc(F)cc(c23)NC1c1ccc(F)cc1 (stereo not given) + Cc1cncc(-c2nc(NCCc3c[nH]c4ccccc34)c3ncn(C(C)C)c3n2)c1,IC50,second compound 0.1 µM,> 0.1 µM
same,IC50,second compound 0.316 µM,> 0.1 µM
same,IC50,second compound 1 µM,> 0.1 µM
same,IC50,second compound 3.16 µM,> 0.1 µM
same,IC50,second compound 10 µM,< 0.000316 µM
same,"viability, T/C","second compound 0.1 µM, first compound 0.000316 µM",103%
same,"viability, T/C","second compound 0.1 µM, first compound 0.001 µM",104%
same,"viability, T/C","second compound 0.1 µM, first compound 0.00316 µM",112%
same,"viability, T/C","second compound 0.1 µM, first compound 0.01 µM",99%
same,"viability, T/C",[1],111%
same,"viability, T/C",[2],108%
same,"viability, T/C","second compound 0.316 µM, first compound 0.000316 µM",107%
same,"viability, T/C","second compound 0.316 µM, first compound 0.001 µM",115%
same,"viability, T/C","second compound 0.316 µM, first compound 0.00316 µM",116%
same,"viability, T/C","second compound 0.316 µM, first compound 0.01 µM",106%
same,"viability, T/C",[7],97.4%
same,"viability, T/C",[8],108%
same,"viability, T/C","second compound 1 µM, first compound 0.000316 µM",101%
same,"viability, T/C","second compound 1 µM, first compound 0.001 µM",105%
same,"viability, T/C","second compound 1 µM, first compound 0.00316 µM",98%
same,"viability, T/C","second compound 1 µM, first compound 0.01 µM",98.5%
same,"viability, T/C",[13],97%
same,"viability, T/C",[14],97.6%
same,"viability, T/C","second compound 3.16 µM, first compound 0.000316 µM",67.8%
same,"viability, T/C","second compound 3.16 µM, first compound 0.001 µM",73.3%
same,"viability, T/C","second compound 3.16 µM, first compound 0.00316 µM",72.4%
same,"viability, T/C","second compound 3.16 µM, first compound 0.01 µM",69%
same,"viability, T/C",[19],70.5%
same,"viability, T/C",[20],64.1%
same,"viability, T/C","second compound 10 µM, first compound 0.000316 µM",8.48%
same,"viability, T/C","second compound 10 µM, first compound 0.001 µM",9.41%
same,"viability, T/C","second compound 10 µM, first compound 0.00316 µM",9.77%
same,"viability, T/C","second compound 10 µM, first compound 0.01 µM",7.44%
same,"viability, T/C",[25],9.58%
same,"viability, T/C",[26],9.69%
NS(=O)(=O)OCC1CC(n2ccc3c(NC4CCc5ccccc54)ncnc32)CC1O (stereo not given) + Cc1cncc(-c2nc(NCCc3c[nH]c4ccccc34)c3ncn(C(C)C)c3n2)c1,IC50,second compound 0.1 µM,2.9 µM
same,IC50,second compound 0.316 µM,2.84 µM
same,IC50,second compound 1 µM,2.14 µM
same,IC50,second compound 3.16 µM,0.774 µM
same,IC50,second compound 10 µM,< 0.0316 µM
same,"viability, T/C",[1],114%
same,"viability, T/C",[2],94.9%
same,"viability, T/C",[3],83.3%
same,"viability, T/C",[4],60.2%
same,"viability, T/C",[5],51%
same,"viability, T/C",[6],35.1%
same,"viability, T/C",[7],128%
same,"viability, T/C",[8],100%
same,"viability, T/C",[9],84.2%
same,"viability, T/C",[10],60.6%
same,"viability, T/C",[11],48.2%
same,"viability, T/C",[12],39.6%
same,"viability, T/C",[13],115%
same,"viability, T/C",[14],98.9%
same,"viability, T/C",[15],99.4%
same,"viability, T/C",[16],59.4%
same,"viability, T/C",[17],48.3%
same,"viability, T/C",[18],36.6%
same,"viability, T/C",[19],69.2%
same,"viability, T/C",[20],66%
same,"viability, T/C",[21],66.1%
same,"viability, T/C",[22],45.4%
same,"viability, T/C",[23],35.4%
same,"viability, T/C",[24],38.3%
same,"viability, T/C",[25],6.36%
same,"viability, T/C",[26],6.52%
same,"viability, T/C",[27],7.75%
same,"viability, T/C",[28],5.11%
same,"viability, T/C",[29],5.06%
same,"viability, T/C",[30],3.64%
